# Article PMC8421406, “C9orf72-derived arginine-rich poly-dipeptides impede phase modifiers” (Nature Communications, 2021)
# Where no end group is shown, it is not given here. HA = HA epitope tag
# Tested on: GFP:hnRNPA2-LC / mCh:hnRNPA2-LC hydrogel
# Experiment: Hydrogel binding assay, hnRNPA2-LC
# Assay type: biochemical
# Details: 1.0 µM GFP:hnRNPA2-LC, Kapβ2 1.0 µM, PR20 1.0 µM
# From the text: Expression plasmids for recombinant proteins (GFP/mCherry fusion LC-domain of FUS (residue 2–214, GFP/mCh:FUS-LC) and GFP/mCherry fusion LC-domain of hnRNPA2 (residue 181–341, GFP/mCh:hnRNPA2-LC)) were obtained from the Steven L. McKnight Laboratory. Expression plasmid for GFP:FUS-LC fusion NLS (residue 501–526, GFP:FUS-LC:NLS), mCh fusion LC-domain of TDP43 (residue 262–414, mCh:TDP43-LC), and GFP-tagged cNLS (residue 78–99) fusion TDP43-LC (GFP:cNLS:TDP43-LC) were constructed using In-Fusion HD Cloning Kit (Takara Bio, Inc.). GFP/mCh:FUS-LC, GFP:FUS-LC:NLS, and GFP/mCh:hnRNPA2-LC were expressed in E. coli BL21(DE3) cells with 0.5 mM IPTG at 20 °C overnight and purified by Ni-NTA Agarose (FUJIFILM Wako Pure Chemical Corporation), as described in a previous study. GFP:cNLS:TDP43-LC were expressed with 1.0 mM IPTG at 37 °C for 3 h and mCh:TDP43-LC were expressed with 0.5 mM IPTG at 16 °C overnight. GFP:cNLS:TDP43-LC and mCh:TDP43-LC were purified by Ni-NTA as described in a previous study[48] with some modifications. […] Relative intensity of GFP signals across the hydrogel droplets were measured in triplicate by using the profile plot mode in ImageJ. […]
substance,measurement,value
"PR20: twenty repeats of proline:arginine with an HA epitope tag at the C terminus, synthesized by SCRUM, Inc. (PRPRPRPRPRPRPRPRPRPRPRPRPRPRPRPRPRPRPRPR-{HA})",Effect on ability of Kapβ2 to block hydrogel binding of hnRNPA2-LC,inhibited the ability of Kapβ2
